Test results as given in article PMC12440824, “Chimeric deubiquitinase engineering reveals structural basis for specific inhibition of the mitophagy regulator USP30” (Nature Structural & Molecular Biology, 2025).

Key:
[1] = system: HeLa cells expressing YFP–parkin; ubiquitination of USP30 substrates (TOM20, TOM40, MFN2); assay: Mitochondrial ubiquitination analysis (OtUBD enrichment, western blot); type: cell-based, human; details: 2 µM compound 19 h, then 10 µM CCCP 1 h
Procedure: Using a Trans-Blot Turbo system (Bio-Rad, 1.0 A, 25 V, 30 min), proteins were blotted onto a nitrocellulose membrane. Membranes were saturated by incubating in 5% (wt/vol) non-fat milk in PBS-T. Primary antibodies (anti-Flag, 1:1,000, Sigma, F3165; anti-USP30, 1:500, Sigma, HPA016952; anti-vinculin, 1:10,000, Sigma, V9131; anti-GAPDH, 1:10,000, Thermo Fisher, AM4300; anti-TOM40, 1:2,000, Proteintech, 18409-1-AP; anti-TOM20, 1:5,000, Proteintech, 11802-1-AP; anti-MFN2, 1:5,000, Proteintech, 12186-1-AP) were allowed to bind overnight. Appropriate horseradish peroxidase-coupled secondary antibodies (anti-mouse, 1:5,000, Sigma, NXA931; anti-rabbit, 1:5,000, Sigma, GENA934) were applied, and chemiluminescence was generated using Clarity Western ECL Substrate (Bio-Rad). For detection of endogenous USP30 levels, the Clarity Western ECL Substrate was supplemented with 10% Clarity Max Western ECL Substrate (Bio-Rad). Images were recorded on a ChemiDoc MP Imaging System (Bio-Rad).
HeLa cells constitutively expressing YFP–parkin were treated with 2 µM of the respective compounds or an equivalent volume of DMSO on the day after seeding. Nineteen hours after compound treatment, 10 µM carbonyl cyanide m-chlorophenyl hydrazone (CCCP, Acros Organics) or DMSO of the equivalent volume was added for 1 h before cells were washed with ice-cold PBS. Cells were then lysed in urea lysis buffer (4 M urea, 50 mM Tris-HCl, pH 8, 150 mM NaCl, 1% (vol/vol) IGEPAL, 2 mM EDTA, 5% (vol/vol) glycerol, 1× EDTA-free protease inhibitor cocktail, 1 mM PMSF, 10 µM PR619, 20 mM N-ethylmaleimide, 4 mM 1,10-phenanthroline) and collected by scraping. Cells were homogenized by sonication for 10 s (2 s on and 2 s off) at 10% amplitude and centrifuged for 10 min at 14,000g and 4 °C.
Biotinylated OtUBD (2 nmol, prepared as described elsewhere[53]) was immobilized on 35 µl of a high-capacity NeutrAvidin agarose bead slurry (Pierce, Thermo Fisher Scientific) per condition for 1 h at 4 °C with rotation. Excess reagent was washed away with ice-cold PBS. The beads were then equilibrated in urea lysis buffer. For each condition, an equal amount of 3 mg protein (as determined by the Bradford assay, in 1 ml of lysis buffer, typically obtained from one 10-cm dish) was added to the beads. These were then incubated for 2 h at 4 °C with rotation and pelleted by centrifugation at 500g for 1 min, and the supernatant was removed. Beads were then washed once with lysis buffer, once with high-salt buffer (50 mM Tris-HCl, pH 8, 1 M NaCl) and twice with PBS. Elution was carried out using 2× LDS sample buffer with 25 mM DTT and boiling for 5 min at 95 °C. After pelleting the beads at 500g for 1 min, the supernatant was transferred and analyzed by SDS–PAGE and western blotting as described above.

USP30 c2 = assay: Thermal shift assay, USP30 c2; type: binding, human; details: 20 μM inhibitor; for ΔTm, USP30 c2: replicates or average
Procedure: (§1) The thermal stability of USP30 constructs and effects of either inhibitor or Ub-PA binding were determined by thermal shift assays. Inhibitor, Ub-PA and SYPRO orange dye (Sigma, 5,000× stock in DMSO) solutions were prepared in 1× PBS, 4 mM DTT. Inhibitor/Ub-PA was prediluted to 100 µM, and SYPRO orange dye was prediluted to 50× (from the commercial stock). Mixtures of protein, inhibitor/Ub-PA and SYPRO were prepared with inhibitor/Ub-PA at a final concentration of 20 μM, SYPRO at a final concentration of 4× and protein at a final concentration of 2 μM for c1, 4 μM for ch1, ch4 and c2 and 3 μM for ch2 and ch3. Samples were added in triplicate to a white 96-well PCR plate (Bio-Rad). Fluorescence intensity was monitored (excitation, 450–490 nm; emission, 560–580 nm) at a gradient of 20–90 °C (increment of 0.3 °C, hold for 5 s before read) on a real-time PCR system (Bio-Rad).

[2] = Solubility in aqueous buffers (observation during crystallization); type: physicochemical
[3] = system: T1, endogenous USP30 in HEK293 cells; assay: Cellular ubiquitin probe competition, endogenous USP30; type: cell-based, human; details: 8 µM compound, 2 h; HA-Ub-PA probe in lysate
T1 construct: Target engagement assay with endogenous USP30; endogenous in cells; host or cells: HEK293 (DSMZ ACC 305)
Procedure: Cells were seeded at 8 × 10^5 cells per well and grown for 48 h. Compounds (2 µM for overexpressed USP30, 8 µM for endogenous USP30) or DMSO were added for 2 h in freshly supplied medium. The medium was aspirated, and cells were washed once with ice-cold PBS. Cells were collected by scraping in lysis buffer (150 mM NaCl, 250 mM sucrose, 50 mM Tris, pH 8.0, 5 mM TCEP) supplemented with EDTA-free complete protease inhibitor cocktail and benzonase. Suspended cells were homogenized by 12 bursts of a microtip probe sonicator (Branson Sonifier 450) at 10% amplitude with pulses of 1 s on ice. Remaining cell debris was separated by centrifugation (20,817g, 5 min, 4 °C). HA-Ub-PA probe was added to the cleared lysate (approximately 2–4 mg ml^−1) at a final concentration of 10 μM when indicated. After incubation for 10 min at room temperature, reactions were quenched by the addition of 4× reducing LDS sample buffer. Samples were resolved by SDS–PAGE and further analyzed via western blot.
Using a Trans-Blot Turbo system (Bio-Rad, 1.0 A, 25 V, 30 min), proteins were blotted onto a nitrocellulose membrane. […] Images were recorded on a ChemiDoc MP Imaging System (Bio-Rad).

USP30^ch3 I154A = USP30^ch3 I154A (Homo sapiens, UniProt Q70CQ3, I154A, form not given); assay: Thermal shift assay, USP30 ch3 I154A; type: binding; details: 20 μM inhibitor
USP30^ch3 I154A, sequence (Q70CQ3 64-502 I154A, form open): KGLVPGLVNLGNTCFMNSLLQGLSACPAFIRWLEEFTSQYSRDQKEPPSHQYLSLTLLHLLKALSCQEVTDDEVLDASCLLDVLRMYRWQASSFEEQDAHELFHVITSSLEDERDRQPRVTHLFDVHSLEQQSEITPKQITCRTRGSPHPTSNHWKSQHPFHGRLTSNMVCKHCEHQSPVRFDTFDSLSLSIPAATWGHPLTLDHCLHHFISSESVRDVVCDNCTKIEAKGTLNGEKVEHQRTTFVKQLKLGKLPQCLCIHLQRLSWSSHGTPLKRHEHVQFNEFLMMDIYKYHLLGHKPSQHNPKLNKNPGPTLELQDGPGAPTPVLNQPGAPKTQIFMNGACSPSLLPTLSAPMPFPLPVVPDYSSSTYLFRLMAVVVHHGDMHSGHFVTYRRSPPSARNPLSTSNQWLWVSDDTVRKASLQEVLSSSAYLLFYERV
USP30^ch3 I154A, sequence (P54578 248-318 partner, form open): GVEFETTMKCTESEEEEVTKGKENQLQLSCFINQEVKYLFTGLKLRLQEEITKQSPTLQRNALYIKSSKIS
USP30^ch3 I154A, sequence (Q9P2H5 821-846 partner, form open): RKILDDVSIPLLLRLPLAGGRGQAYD
Procedure: as §1

USP30^ch1 = USP30^ch1 (Homo sapiens, UniProt Q70CQ3); assay: Thermal shift assay, USP30 ch1; type: binding; details: 20 μM inhibitor
USP30^ch1, sequence (Q70CQ3 64-502): as the sequence (Q70CQ3 64-502 I154A, form open) above, with A91I counted along it
USP30^ch1, sequence (Q93009 325-395 partner): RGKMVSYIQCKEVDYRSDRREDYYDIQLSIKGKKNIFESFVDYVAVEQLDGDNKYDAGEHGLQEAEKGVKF
Procedure: as §1

SMILES | polyubiquitination of TOM20 and TOM40 [1] | polyubiquitination of mitofusin 2 (MFN2) [1] | Tm in presence of compound, USP30 c2 (USP30 c2) | ΔTm, USP30 c2 (USP30 c2) | solubility in aqueous buffers [2] | activity in probe-labeling experiment with endogenous USP30 [3] | Tm in presence of compound, USP30^ch3 I154A (USP30^ch3 I154A) | Tm in presence of compound, USP30^ch1 (USP30^ch1)
CC(C)(CO)NS(=O)(=O)c1ccc(NC(=O)[C@H](Cc2ccccc2)NC(=O)c2ccc(F)cc2)cc1 [NK036] | elevated | not affecting | 58.2 °C | 7.5 °C | improved | confirmed | 59.0 °C | 55.2 °C
CC(C)(C)NS(=O)(=O)c1ccc(NC(=O)[C@H](Cc2ccccc2)NC(=O)c2ccc(F)cc2)cc1 [compound 39] | elevated | not affecting | 58.5 °C | 7.8 °C | poor solubility | confirmed | 59.0 °C | 56.1 °C
